# Measurements: patent publication US20230023559A1, “ARYLMETHYLENE HETEROCYCLIC COMPOUNDS AS KV1.3 POTASSIUM SHAKER CHANNEL BLOCKERS” (D. E. Shaw Research, LLC, priority 2019, published 2023)
# What was measured:
# [1] = target: T1, Kv1.3 potassium channel (Homo sapiens, UniProt P22001); assay: Kv1.3 potassium channel blocker activity, automated whole-cell patch clamp (Patchliner); type: cell-based; conditions: CHO-K1 cells stably expressing Kv1.3; whole cell current inhibition; read-out: Kv1.3_IC50
# T1 construct: expressed in transfected cells
# T1 sequence (P22001 whole entry): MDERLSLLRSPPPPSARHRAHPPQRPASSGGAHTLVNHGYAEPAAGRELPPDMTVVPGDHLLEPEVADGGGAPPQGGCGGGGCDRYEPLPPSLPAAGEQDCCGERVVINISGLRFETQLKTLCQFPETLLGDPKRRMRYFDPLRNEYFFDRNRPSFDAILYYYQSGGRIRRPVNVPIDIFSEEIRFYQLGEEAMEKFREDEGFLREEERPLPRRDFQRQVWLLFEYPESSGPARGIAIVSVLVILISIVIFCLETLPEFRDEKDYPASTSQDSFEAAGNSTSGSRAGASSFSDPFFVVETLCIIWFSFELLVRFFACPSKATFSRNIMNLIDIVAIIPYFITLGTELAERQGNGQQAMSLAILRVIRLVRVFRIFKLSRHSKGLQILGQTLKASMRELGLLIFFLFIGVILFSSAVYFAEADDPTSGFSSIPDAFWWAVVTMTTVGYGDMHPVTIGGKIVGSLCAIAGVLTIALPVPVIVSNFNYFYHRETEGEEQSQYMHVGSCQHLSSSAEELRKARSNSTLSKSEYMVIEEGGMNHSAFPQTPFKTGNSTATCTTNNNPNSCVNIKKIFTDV
# Outline: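 Peak-current block was recorded on stable Kv1.3 CHO-K1 cells by automated patch clamp, stepping from a −90 mV holding potential to +40 mV for 100 ms at 0.1 Hz with 10 s breaks between trains. Online P/4 leak subtraction, 10 kHz sampling; compound exposure under 10 s per train.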
# [2] = target: hERG channel (Homo sapiens, UniProt Q12809); assay: hERG electrophysiology, automated whole-cell patch clamp (Patchliner)
# Sequence of hERG channel (Q12809 whole entry): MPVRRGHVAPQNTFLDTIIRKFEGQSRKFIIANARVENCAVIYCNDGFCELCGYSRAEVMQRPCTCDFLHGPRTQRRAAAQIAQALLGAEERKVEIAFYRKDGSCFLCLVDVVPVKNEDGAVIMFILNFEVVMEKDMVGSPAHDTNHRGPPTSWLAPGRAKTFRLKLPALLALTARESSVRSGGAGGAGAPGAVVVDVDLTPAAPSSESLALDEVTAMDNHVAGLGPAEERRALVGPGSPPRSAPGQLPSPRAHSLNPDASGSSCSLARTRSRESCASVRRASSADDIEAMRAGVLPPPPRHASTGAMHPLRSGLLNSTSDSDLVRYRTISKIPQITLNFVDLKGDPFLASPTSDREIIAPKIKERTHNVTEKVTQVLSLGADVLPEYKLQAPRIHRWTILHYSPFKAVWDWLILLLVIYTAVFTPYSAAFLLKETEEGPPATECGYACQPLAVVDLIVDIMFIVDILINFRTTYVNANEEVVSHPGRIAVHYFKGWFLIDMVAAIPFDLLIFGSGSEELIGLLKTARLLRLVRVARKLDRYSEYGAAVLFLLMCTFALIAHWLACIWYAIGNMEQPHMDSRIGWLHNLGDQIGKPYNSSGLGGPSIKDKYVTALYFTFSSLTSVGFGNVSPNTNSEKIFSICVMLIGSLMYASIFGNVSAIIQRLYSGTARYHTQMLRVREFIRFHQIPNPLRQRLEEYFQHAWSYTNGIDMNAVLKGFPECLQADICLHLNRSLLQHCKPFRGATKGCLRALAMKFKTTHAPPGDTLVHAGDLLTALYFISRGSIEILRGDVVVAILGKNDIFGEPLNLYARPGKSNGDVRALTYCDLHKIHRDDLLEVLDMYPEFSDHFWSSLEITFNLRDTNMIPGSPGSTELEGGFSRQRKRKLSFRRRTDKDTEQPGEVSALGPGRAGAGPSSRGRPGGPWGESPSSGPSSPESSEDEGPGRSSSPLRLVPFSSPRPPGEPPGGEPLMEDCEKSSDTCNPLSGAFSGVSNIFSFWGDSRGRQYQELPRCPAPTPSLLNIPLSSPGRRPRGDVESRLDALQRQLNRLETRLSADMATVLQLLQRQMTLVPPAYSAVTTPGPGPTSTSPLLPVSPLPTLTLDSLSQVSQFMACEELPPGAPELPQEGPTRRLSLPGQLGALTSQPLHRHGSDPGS
# Experimental: CHO-K1 cells stably expressing hERG were grown in Ham's F-12 Medium with Glutamine containing 10% heat-inactivated FBS, 1% Penicillin/Streptomycin, Hygromycin (100 μg/ml) and G418 (100 μg/ml). Cells were grown in culture flasks at 37° C. in a 5% CO2-humidified incubator.
# The cells were bathed in an extracellular solution containing 140 mM NaCl, 4 mM KCl, 2 mM CaCl2), 1 mM MgCl2, 5 mM Glucose, 10 mM HEPES; pH adjusted to 7.4 with NaOH; 295-305 mOsm. The internal solution contained 50 mM KCl, 10 mM NaCl, 60 mM KF, 20 mM EGTA, 10 mM HEPES; pH adjusted to 7.2 with KOH; 285 mOsm. All compounds were dissolved in DMSO at 30 mM. Compound stock solutions were freshly diluted with external solution to concentrations of 30 nM, 100 nM, 300 nM, 1 μM, 3 μM, 10 μM, 30 μM and 100 μM. The highest content of DMSO (0.3%) was present in 100 μM.
# The voltage protocol (see Table B) was designed to simulate voltage changes during a cardiac action potential with a 300 ms depolarization to +20 mV (analogous to the plateau phase of the cardiac action potential), a repolarization for 300 ms to −50 mV (inducing a tail current) and a final step to the holding potential of −80 mV. The pulse frequency was 0.3 Hz. Control (compound-free) and compound pulse trains for each compound concentration applied contained 70 pulses.
# Whole cell current recordings and compound application were enabled by means of an automated patch clamp platform Patchliner (Nanion). EPC 10 patch clamp amplifier (HEKA) along with Patchmaster software (HEKA Elektronik Dr. Schulze GmbH) was used for data acquisition. Data were sampled at 10 kHz without filtering. Increasing compound concentrations were applied consecutively to the same cell without washouts in between.
# AUC and PEAK values were obtained with Patchmaster (HEKA Elektronik Dr. Schulze GmbH). To determine IC50 the last single pulse in the pulse train corresponding to a given compound concentration was used. Obtained AUC and PEAK values in the presence of compound were normalized to control values in the absence of compound. Using Origin (OridinLab), IC50 was derived from data fit to Hill equation: Icompound/Icontrol=(100−A)/(1+([compound]/IC50)nH)+A, where IC50 is the concentration at which current inhibition is half-maximal, [compound] is the applied compound concentration, A is the fraction of current that is not blocked and nH is the Hill coefficient.
IC50 [1],Compound,IC50 [2]
< 0.5 µM,"N[C@@H](c1cc(Cl)c(Cl)cc1O)C1CCN(C(=O)CC2CNC2)CC1 [Compound 103, (R)-1-(4-(amino(4,5-dichloro-2-hydroxyphenyl)methyl)piperidin-1-yl)-2-(azetidin-3-yl)ethanone trifluoroacetic acid]",> 30 µM
< 0.5 µM,"CN1CC[C@@H](C(=O)N2CCC([C@@H](N)c3cc(Cl)c(Cl)cc3O)CC2)C1 [Compound 104, 2-[(R)-amino([1-[(3R)-1-methylpyrrolidine-3-carbonyl]piperidin-4-yl])methyl]-4,5-dichlorophenol]",> 30 µM
< 10 µM,"C[C@@H](O)C(=O)N1CCC([C@@H](N)c2cc(Cl)c(Cl)cc2O)CC1 [Compound 105, (R)-1-(4-((R)-amino(4,5-dichloro-2-hydroxyphenyl)methyl)piperidin-1-yl)-2-hydroxypropan-1-one]",> 30 µM
< 0.5 µM,"CN1CC[C@H](C(=O)N2CCC([C@@H](N)c3cc(Cl)c(Cl)cc3O)CC2)C1 [Compound 106, (4-((R)-amino(4,5-dichloro-2-hydroxyphenyl)methyl)piperidin-1-yl)((S)-1-methylpyrrolidin-3-yl)methanone]",> 30 µM
< 0.5 µM,"N[C@@H](c1cc(Cl)c(Cl)cc1O)C1CCN(S(=O)(=O)C2CNC2)CC1 [Compound 107, 2-[(R)-amino[1-(azetidine-3-sulfonyl)piperidin-4-yl]methyl]-4,5-dichlorophenol]",> 30 µM
< 0.5 µM,"CC1(C(=O)N2CCC([C@@H](N)c3cc(Cl)c(Cl)cc3O)CC2)CNC1 [Compound 109, (R)-(4-(amino(4,5-dichloro-2-hydroxyphenyl)methyl)piperidin-1-yl)(3-methylazetidin-3-yl)methanone]",> 30 µM
< 0.5 µM,"N[C@@H](c1cc(Cl)c(Cl)cc1O)C1CCN(S(=O)(=O)C2CCNC2)CC1 (stereo partly drawn) [Compound 110, 2-[(R)-amino[1-(pyrrolidine-3-sulfonyl)piperidin-4-yl]methyl]-4,5-dichlorophenol]",> 30 µM
< 0.5 µM,"O=C([C@@H]1CCNC1)N1CCC(Cc2cc(Cl)c(Cl)cc2O)CC1 [Compound 111, 4,5-dichloro-2-([1-[(3R)-pyrrolidine-3-carbonyl]piperidin-4-yl]methyl)phenol Trifluoroacetic Acid]",< 30 µM
< 0.5 µM,"N[C@@H](c1cc(Cl)c(Cl)cc1O)C1CCN(C(=O)C2(F)CNC2)CC1 [Compound 114, 2-[(R)-amino[1-(3-fluoroazetidine-3-carbonyl)piperidin-4-yl]methyl]-4,5-dichlorophenol]",> 30 µM
< 0.5 µM,"N[C@@H](c1cc(Cl)c(Cl)cc1O)C1CCN(C(=O)C(O)CO)CC1 (stereo partly drawn) [Compound 117, 1-(4-((R)-amino(4,5-dichloro-2-hydroxyphenyl)methyl)piperidin-1-yl)-2,3-dihydroxypropan-1-one]",> 30 µM
< 0.5 µM,"O=C([C@@H]1CCNC1)N1CCC(Cc2c(O)ccc(Cl)c2Cl)CC1 [Compound 122, 3,4-dichloro-2-([1-[(3R)-pyrrolidine-3-carbonyl]piperidin-4-yl]methyl)phenol Trifluoroacetic Acid]",< 30 µM
< 10 µM,"O=C([C@@H]1CCNC1)N1CCC(C(O)c2c(O)ccc(Cl)c2Cl)CC1 (stereo partly drawn) [Compound 126, 3,4-dichloro-2-[hydroxy([1-[(3R)-pyrrolidine-3-carbonyl]piperidin-4-yl])methyl]phenol Trifluoroacetic Acid]",> 30 µM
< 0.5 µM,"N[C@@H](c1cc(Cl)c(Cl)cc1O)C1CCN(C(=O)c2cn[nH]c2)CC1 [Compound 131, 2-[(R)-amino[1-(1H-pyrazole-4-carbonyl)piperidin-4-yl]methyl]-4,5-dichlorophenol trifluoroacetic acid]",> 30 µM
< 10 µM,"COCCS(=O)(=O)N1CCC([C@@H](N)c2cc(Cl)c(Cl)cc2O)CC1 [Compound 132, 2-[(R)-amino[1-(2-methoxyethanesulfonyl)piperidin-4-yl]methyl]-4,5-dichlorophenol Trifluoroacetic Acid]",< 30 µM
< 0.5 µM,"N[C@@H](c1cc(Cl)c(Cl)cc1O)C1CCN(C(=O)CCO)CC1 [Compound 133, 1-[4-[(R)-amino(4,5-dichloro-2-hydroxyphenyl)methyl]piperidin-1-yl]-3-hydroxypropan-1-one trifluoroacetic acid]",> 30 µM
< 0.5 µM,"COCC(=O)N1CCC([C@@H](N)c2cc(Cl)c(Cl)cc2O)CC1 [Compound 134, 1-[4-[(R)-amino(4,5-dichloro-2-hydroxyphenyl)methyl]piperidin-1-yl]-2-methoxyethan-1-one trifluoroacetic acid]",< 30 µM

IC50 [1],Compound,IC50 [2]
< 0.5 µM,"N[C@@H](c1cc(Cl)c(Cl)cc1O)C1CCN(C(=O)CO)CC1 [Compound 135, 1-[4-[(R)-amino(4,5-dichloro-2-hydroxyphenyl)methyl]piperidin-1-yl]-2-hydroxyethan-1-one trifluoroacetic acid]",> 30 µM
< 10 µM,"N[C@@H](c1cc(Cl)c(Cl)cc1O)C1CCN(C(=O)c2ccn[nH]2)CC1 [Compound 136, 2-[(R)-amino[1-(1H-pyrazole-3-carbonyl)piperidin-4-yl]methyl]-4,5-dichlorophenol trifluoroacetic acid]",> 30 µM
< 0.5 µM,"N[C@@H](c1cc(Cl)c(Cl)cc1O)C1CCN(C(=O)C2COCCO2)CC1 (stereo partly drawn) [Compound 137, 2-[(R)-amino[1-(1,4-dioxane-2-carbonyl)piperidin-4-yl]methyl]-4,5-dichlorophenol trifluoroacetic acid]",< 30 µM
< 10 µM,"N[C@@H](c1cc(Cl)c(Cl)cc1O)C1CCN(C(=O)[C@H]2C[C@@H](O)C2)CC1 [Compound 138, 2-[(R)-amino([1-[(1S,3S)-3-hydroxycyclo-butanecarbonyl]piperidin-4-yl])methyl]-4,5-dichlorophenol trifluoroacetic acid]",> 30 µM
< 0.5 µM,"N[C@@H](c1cc(Cl)c(Cl)cc1O)C1CCN(C(=O)[C@H]2C[C@H](O)C2)CC1 [Compound 139, 2-[(R)-amino([1-[(1R,3R)-3-hydroxycyclo-butanecarbonyl]piperidin-4-yl])methyl]-4,5-dichlorophenol trifluoroacetic acid]",> 30 µM
< 10 µM,"N[C@@H](c1cc(Cl)c(Cl)cc1O)C1CCN(C(=O)C2(O)CC2)CC1 [Compound 140, 2-[(R)-amino[1-(1-hydroxycyclo-propanecarbonyl)piperidin-4-yl]methyl]-4,5-dichlorophenol trifluoroacetic acid]",< 30 µM
< 0.5 µM,"N[C@@H](c1cc(Cl)c(Cl)cc1O)C1CCN(C(=O)N2CCNCC2)CC1 [Compound 141, 2-[(R)-amino[1-(piperazine-1-carbonyl)piperidin-4-yl]methyl]-4,5-dichlorophenol Trifluoroacetic Acid]",> 30 µM
< 10 µM,"CC(C)(CO)C(=O)N1CCC([C@@H](N)c2cc(Cl)c(Cl)cc2O)CC1 [Compound 142, 1-[4-[(R)-amino(4,5-dichloro-2-hydroxyphenyl)methyl]piperidin-1-yl]-3-hydroxy-2,2-dimethylpropan-1-one trifluoroacetic acid]",< 30 µM
< 10 µM,"N[C@@H](c1cc(Cl)c(Cl)cc1O)C1CCN(C(=O)C2(O)COC2)CC1 [Compound 143, 3-[4-[(R)-amino(4,5-dichloro-2-hydroxyphenyl)methyl]piperidine-1-carbonyl]oxetan-3-ol]",> 30 µM
< 10 µM,"N[C@@H](c1cc(Cl)c(Cl)cc1O)C1CCN(C(=O)C2COCCN2)CC1 (stereo partly drawn) [Compound 144, 2-[(R)-amino[1-(morpholine-3-carbonyl)piperidin-4-yl]methyl]-4,5-dichlorophenol trifluoroacetic acid]",> 30 µM
< 0.5 µM,"N[C@@H](c1cc(Cl)c(Cl)cc1O)C1CCN(S(=O)(=O)CCO)CC1 [Compound 145, (R)-2-(amino(1-((2-hydroxyethyl)sulfonyl)piperidin-4-yl)methyl)-4,5-dichlorophenol Trifluoroacetic Acid]",< 30 µM
< 10 µM,"Nc1cccc(N2CCC([C@@H](N)c3cc(Cl)c(Cl)cc3O)CC2)n1 [Compound 146, (R)-2-(amino(1-(6-aminopyridin-2-yl)piperidin-4-yl)methyl)-4,5-dichlorophenol Trifluoroacetic Acid]",< 30 µM
< 0.5 µM,"Nc1ccc(N2CCC([C@@H](N)c3cc(Cl)c(Cl)cc3O)CC2)nc1 [Compound 147, (R)-2-(amino(1-(5-aminopyridin-2-yl)piperidin-4-yl)methyl)-4,5-dichlorophenol Trifluoroacetic Acid]",< 30 µM
< 0.5 µM,"N[C@@H](c1cc(Cl)c(Cl)cc1O)C1CCN(C(=O)N2CC(O)C2)CC1 [Compound 148, 1-[4-[(R)-amino(4,5-dichloro-2-hydroxyphenyl)methyl]piperidine-1-carbonyl]azetidin-3-ol Trifluoroacetic Acid]",> 30 µM
< 10 µM,"N[C@@H](c1cc(Cl)c(Cl)cc1O)C1CCN(c2cn[nH]c2)CC1 [Compound 149, 2-[(R)-amino[1-(1H-pyrazol-4-yl)piperidin-4-yl]methyl]-4,5-dichlorophenol Trifluoroacetic Acid]",< 30 µM
< 0.5 µM,"Nc1ccnc(N2CCC([C@@H](N)c3cc(Cl)c(Cl)cc3O)CC2)c1 [Compound 150, (R)-2-(amino(1-(4-aminopyridin-2-yl)piperidin-4-yl)methyl)-4,5-dichlorophenol Trifluoroacetic Acid]",< 30 µM
